Laboratory results reported in patent publication US12037324B2, “Biarylmethyl heterocycles” (Université de Montréal, priority 2016, dated 2024).
Read-outs that look alike come from different tables or passages of the source.

What was measured:
AGTR1 [1] = biological target: T1, AGTR1 (Homo sapiens, UniProt P30556); experiment: DiscoveRx β-arrestin2 recruitment assay (enzyme complementation, Pathunter CHO-K1 AGTR1 β-arrestin cell line); assay type: cell-based; conditions: DiscoveRx β-arrestin2 recruitment; for DiscoveRx β-arrestin2 Ymax (%): maximal response
T1 construct: host or cells: Pathunter CHO-K1 AGTR1 β-arrestin cell line (CHO-K1)
T1 sequence (P30556 1-359): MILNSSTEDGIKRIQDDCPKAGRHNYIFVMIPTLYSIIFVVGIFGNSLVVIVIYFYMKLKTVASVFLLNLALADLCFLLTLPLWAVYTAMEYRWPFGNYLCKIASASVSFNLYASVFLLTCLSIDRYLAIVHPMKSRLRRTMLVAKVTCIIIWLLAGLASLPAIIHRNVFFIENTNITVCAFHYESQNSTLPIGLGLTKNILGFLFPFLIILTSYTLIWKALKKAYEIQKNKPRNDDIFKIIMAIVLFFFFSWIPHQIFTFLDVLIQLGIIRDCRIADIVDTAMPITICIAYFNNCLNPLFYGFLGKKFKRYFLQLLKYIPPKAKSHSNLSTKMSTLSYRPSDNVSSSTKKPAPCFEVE
Method in brief: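 Chemiluminescent enzyme-complementation read-out of β-arrestin2 recruitment to AGTR1 in engineered CHO-K1 cells after 90 min compound exposure at 37° C. Values are 4-parameter logistic EC50s in agonist mode, IC50s in antagonist mode, with efficacy relative to the maximal All response.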

hAT1R [2] = biological target: T2, hAT1R (Homo sapiens, UniProt P30556); experiment: cell-based; conditions: agonist mode; for EC50: read-out: BRET P63 EC50
T2 sequence (P30556 1-359): T1 sequence (P30556 1-359)

AGTR1 [3] = biological target: T1, AGTR1; experiment: DiscoveRx IP1 accumulation assay (HTRF), agonist mode, Pathunter CHO-K1 AGTR1 β-arrestin cell line; assay type: cell-based; conditions: for EC50: read-out: IP-1 EC50
Method in brief: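 Agonist mode in CHO-K1 AGTR1 β-arrestin cells plated 14-16 h before; compounds at varying concentrations for 90 min at 37° C, IP1 accumulation read by HTRF (D2-conjugate and anti-IP1 cryptate, 20 min room temperature). EC50 from 4-parameter logistic fit; activity given as percentage of maximal AII effect.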

hAT1R [4] = biological target: T2, hAT1R; experiment: cell-based
[5] = section of the 42nd table ending at r951, example numbering restarts after the DiscoveRx section, read-out: β-arrestin2 EC50
[6] = Low AT1R Expression, read-out: BRET β-Arrestin2 Low AT1R Expression EC50

SMILES | EC50 (AGTR1 [1]) [nM] | DiscoveRx β-arrestin2 Ymax (%) (AGTR1 [1]) | BRET P63 Ymax (hAT1R [2]) [%] | EC50 (hAT1R [2]) [nM] | IP-1 Ymax (%) (AGTR1 [3]) | EC50 (AGTR1 [3]) [nM] | EC50 (hAT1R [4]; [5]) [nM] | BRET β-Arrestin2 Low AT1R Expression Ymax (%) (hAT1R [4]; Low AT1R Expression) | EC50 (hAT1R [4]; [6]) [nM]
CCc1nc2c(C)cc(C)nc2n1Cc1ccc(-c2cc(-n3nnc4ccccc43)ccc2-c2nnn[nH]2)cc1 [Example 233, 1-(4′-((2-Ethyl-5,7-dimethyl-3H-imidazo[4,5-b]pyridin-3-yl)methyl)-6-(1H-tetrazol-5-yl)-[1,1′-biphenyl]-3-yl)-1H-benzo[d][1,2,3]triazole] | 10.5 | 59.2 | 17.9 | 13.2 | 10.2 | 31.3 | 9.7 | – | –
CCc1nc2c(C)cc(C)nc2n1Cc1ccc(-c2cc(-n3cnc4ccccc43)ccc2-c2nnn[nH]2)cc1 [Example 222] | 56.9 | 42.7 | – | > 100000 | 4.9 | 187 | 98.5 | – | –
CCC1=NC2(CCOC2)C(=O)N1Cc1ccc(-c2cc(-c3ccccc3O)ccc2-c2nnn[nH]2)cc1 (single isomer, unassigned) [Example 170] | 170 | 63.4 | 13.5 | 633 | 13.2 | 469 | 590 | – | –
CCCC1=NC2(CCOC2)C(=O)N1Cc1ccc(-c2cc(-c3ccccc3O)ccc2-c2nnn[nH]2)cc1 (single isomer, unassigned) [Example 160] | 87.8 | 50.2 | 18.6 | 79.7 | 15.8 | 132 | 98.5 | – | –
CCc1nc2c(C)cc(C)nc2n1Cc1ccc(-c2cc(-c3ccccc3)ccc2C(=O)NS(C)(=O)=O)cc1 [Example 244] | 96.5 | 34.7 | 15.3 | 69.6 | 11.0 | 201 | 111 | – | –
CCCC1=NC2(CCOC2)C(=O)N1Cc1ccc(-c2cc(-c3ccccc3)ccc2-c2nnn[nH]2)cc1 (single isomer, unassigned) [Example 162] | 147 | 31.9 | – | > 10000 | 8.9 | 235 | 373 | – | –
CCc1nc2c(C)cc(C)nc2n1Cc1ccc(-c2cc(-n3cc(C)nn3)ccc2-c2nnn[nH]2)cc1 [Example 232] | 16.9 | 41.5 | – | > 100000 | 7.5 | 60 | 101 | – | –
CCc1nc2c(C)cc(C)nc2n1Cc1ccc(-c2cc(-c3cc(OC)ccn3)ccc2-c2nn[nH]n2)cc1 [Example 62, 2-Ethyl-3-((5′-(4-methoxypyridin-2-yl)-2′-(2H-tetrazol-5-yl)-[1,1′-biphenyl]-4-yl)methyl)-5,7-dimethyl-3H-imidazo[4,5-b]pyridine] | 15.1 | 50.0 | 35.7 | 4.2 | 22.7 | 29 | – | 74.7 | 3.7
CCc1nc2c(C)cc(C)nc2n1Cc1ccc(-c2cc(C3CCCCCC3)ccc2-c2nn[nH]n2)cc1 [Example 81] | 38.3 | 17.6 | – | > 100000 | – | > 100000 | – | 16.3 | 38.3
CCc1nc2c(C)cc(C)nc2n1Cc1cnc(-c2cc(-c3cccc(C)c3)ccc2-c2nnn[nH]2)nc1 [Example 197, 2-ethyl-5,7-dimethyl-3-((2-(3′-methyl-4-(1H-tetrazol-5-yl)biphenyl-3-yl)pyrimidin-5-yl)methyl)-3H-imidazo[4,5-b]pyridine] | 282 | 20.2 | – | > 100000 | 5.7 | 493 | > 10000 | – | –
CCCCC1=NC2(CCOCC2)C(=O)N1Cc1ccc(-c2cc(-c3cccc(C)c3)ccc2-c2nn[nH]n2)cc1 [Example 155, 2-butyl-3-((3″-methyl-6′-(2H-tetrazol-5-yl)-[1,1′:3′,1″-terphenyl]-4-yl)methyl)-8-oxa-1,3-diazaspiro[4.5]dec-1-en-4-one] | 40.8 | 32.0 | – | > 100000 | – | > 100000 | 42.7 | – | –
CCc1nc2c(C)cc(C)nc2n1Cc1ccc(-c2cc(-c3ccccc3)ccc2-c2n[nH]c(=S)o2)cc1 [Example 246, 5-(4″-((2-Ethyl-5,7-dimethyl-3H-imidazo[4,5-b]pyridin-3-yl)methyl)-[1,1′:3′,1″-terphenyl]-4′-yl)-1,3,4-oxadiazole-2(3H)-thione] | 234 | 38.3 | 10.1 | 82.6 | 4.8 | 281 | 916 | – | –
CCc1nc2c(C)cc(C)nc2n1Cc1ccc(-c2cc(-n3ccc(C)n3)ccc2-c2nnn[nH]2)cc1 [Example 218] | 45.9 | 21.5 | – | > 10000 | 4.6 | 33.3 | > 10000 | – | –
CCC1=NC2(CCOC2)C(=O)N1Cc1ccc(-c2cc(-c3ccccc3)ccc2-c2nnn[nH]2)cc1 (single isomer, unassigned) [Example 168] | 352 | 34.5 | – | > 10000 | 13.8 | 826 | 998 | – | –
CCc1nc2c(C)cc(C)nc2n1Cc1ccc(-c2cc(-c3cn(CC(C)C)nn3)ccc2-c2nnn[nH]2)cc1 [Example 240] | 48.6 | 42.0 | 9.5 | 60.1 | 14.1 | 122 | 345 | – | –
CCCC1=NC2(CCOC2)C(=O)N1Cc1ccc(-c2cc(-c3cccc(C)c3)ccc2-c2nnn[nH]2)cc1 (single isomer, unassigned) [Example 159] | 51.4 | 44.0 | 11.5 | 79.3 | 11.3 | 78.1 | 40.3 | – | –
CCC1=NC2(CCCC2)C(=O)N1Cc1ccc(-c2cc(-c3cc(C)ccn3)ccc2-c2nn[nH]n2)cc1 [Example 113] | 14.9 | 66.3 | 28.6 | 17.2 | 17.8 | 83.5 | – | 88.6 | 9.8
CCCCC1=NC2(CCOC2)C(=O)N1Cc1ccc(-c2cc(-c3cc(C)ccn3)ccc2-c2nnn[nH]2)cc1 (single isomer, unassigned) [Example 154] | 14.1 | 48.7 | 25.3 | 57.7 | 14.4 | 40.6 | 63.9 | – | –
CCc1nc2c(C)cc(C)nc2n1Cc1ccc(-c2cc(-c3ccc(OC)cc3)ccc2-c2nn[nH]n2)cc1 [Example 14] | 10.3 | 20.8 | – | > 10000 | 8.1 | 14.5 | – | – | > 10000
COc1ccnc(-c2ccc(-c3nn[nH]n3)c(-c3ccc(CN4C(=O)C5(CCCC5)N=C4C4CC4)cc3)c2)c1 [Example 119, 2-cyclopropyl-3-((5′-(4-methoxypyridin-2-yl)-2′-(2H-tetrazol-5-yl)-[1,1′-biphenyl]-4-yl)methyl)-1,3-diazaspiro[4.4]non-1-en-4-one] | 47.5 | 51.4 | 21.8 | 40.5 | 18.4 | 108 | – | 63.9 | 53.9
CCc1nc2c(C)cc(C)nc2n1Cc1ccc(-c2cc(-c3ccccn3)ccc2C(=O)O)cc1 [Example 192, 4′-((2-ethyl-5,7-dimethyl-3H-imidazo[4,5-b]pyridin-3-yl)methyl)-5-(pyridin-2-yl)biphenyl-2-carboxylic acid] | 94.3 | 45.1 | – | > 100000 | 11.1 | 223 | 127 | – | –
CCCCn1cc(-c2ccc(-c3nnn[nH]3)c(-c3ccc(Cn4c(CC)nc5c(C)cc(C)nc54)cc3)c2)nn1 [Example 241] | 41.5 | 44.3 | 17.5 | 40.5 | 12.8 | 150 | 50.2 | – | –
